Row | Compound | melting point [°C]
1 | CCOP(=O)(Cc1ccc(NC(=O)Nc2ccc(N3CCN(C(=O)Nc4c(C)cccc4Cl)CC3)cc2)cc1)OCC | 218 to 220
2 | CC(C)(C)OC(=O)N1CCN(c2ccc(NC(=O)Nc3cccc(Oc4ccccc4)c3)cc2)CC1 [Example 3, 4-{4-[3-(3-phenoxy-phenyl)-ureido]-phenyl}-piperazine-1-carboxylic acid tert-butyl ester] | 172
3 | CCOc1ccccc1NC(=O)Nc1ccc(N2CCN(C(=O)OC(C)(C)C)CC2)cc1 [Example 4, 4-{4-[3-(2-ethoxy-phenyl)-ureido]-phenyl}-piperazine-1-carboxylic acid tert-butyl ester] | 84
4 | CC(C)(C)OC(=O)N1CCN(c2ccc(NC(=O)Nc3ccccc3Oc3ccccc3)cc2)CC1 [Example 7, 4-{4-[3-(2-phenoxy-phenyl)-ureido]-phenyl}-piperazine-1-carboxylic acid tert-butyl ester] | 186 to 187
5 | CC(C)(C)OC(=O)N1CCN(c2ccc(NC(=O)Nc3ccccc3OC(F)F)cc2)CC1 [Example 9, 4-{4-[3-(2-difluoromethoxy-phenyl)-ureido]-phenyl}-piperazine-1-carboxylic acid tert-butyl ester] | 154 to 155
6 | CCCc1ccccc1NC(=O)Nc1ccc(N2CCN(C(=O)OC(C)(C)C)CC2)cc1 [Example 18, 4-{4-[3-(2-propyl-phenyl)-ureido]-phenyl}-piperazine-1-carboxylic acid tert-butyl ester] | 177 to 181
7 | CN(C)c1ccc(NC(=O)Nc2ccc(N3CCN(C(=O)OC(C)(C)C)CC3)cc2)cc1 [Example 20, 4-{4-[3-(4-dimethylamino-phenyl)-ureido]-phenyl}-piperazine-1-carboxylic acid tert-butyl ester] | 207
8 | CCC(C)c1ccccc1NC(=O)Nc1ccc(N2CCN(C(=O)OC(C)(C)C)CC2)cc1 (stereo not shown) [Example 21, 4-{4-[3-(2-sec-butyl-phenyl)-ureido]-phenyl}-piperazine-1-carboxylic acid tert-butyl ester] | 177
9 | CCOc1ccc(NC(=O)Nc2ccc(N3CCN(C(=O)OC(C)(C)C)CC3)cc2)cc1 [Example 23, 4-{4-[3-(4-ethoxy-phenyl)-ureido]-phenyl}-piperazine-1-carboxylic acid tert-butyl ester] | 198 to 200
10 | CCc1ccc(NC(=O)Nc2ccc(N3CCN(C(=O)OC(C)(C)C)CC3)cc2)cc1 [Example 24, 4-{4-[3-(4-ethyl-phenyl)-ureido]-phenyl}-piperazine-1-carboxylic acid tert-butyl ester] | 204 to 205
11 | CCC(C)c1ccc(NC(=O)Nc2ccc(N3CCN(C(=O)OC(C)(C)C)CC3)cc2)cc1 (stereo not shown) [Example 25, 4-{4-[3-(4-sec-butyl-phenyl)-ureido]-phenyl}-piperazine-1-carboxylic acid tert-butyl ester] | 201 to 202
12 | CCCCOc1ccc(NC(=O)Nc2ccc(N3CCN(C(=O)OC(C)(C)C)CC3)cc2)cc1 [Example 26, 4-{4-[3-(4-butoxy-phenyl)-ureido]-phenyl}-piperazine-1-carboxylic acid tert-butyl ester] | 185 to 188
13 | CCc1cccc(NC(=O)Nc2ccc(N3CCN(C(=O)OC(C)(C)C)CC3)cc2)c1 [Example 30, 4-{4-[3-(3-ethyl-phenyl)-ureido]-phenyl}-piperazine-1-carboxylic acid tert-butyl ester] | 160
14 | CCCCc1ccc(NC(=O)Nc2ccc(N3CCN(C(=O)OC(C)(C)C)CC3)cc2)cc1 [Example 34, 4-{4-[3-(4-butyl-phenyl)-ureido]-phenyl}-piperazine-1-carboxylic acid tert-butyl ester] | 167 to 170
15 | COc1ccc(C)cc1NC(=O)Nc1ccc(N2CCN(C(=O)OC(C)(C)C)CC2)nc1 [Example 38, 4-{5-[3-(2-methoxy-5-methyl-phenyl)-ureido]-pyridin-2-yl}-piperazine-1-carboxylic acid tert-butyl ester] | 185 to 186

The next lines start with the values.

Row | melting point [°C] | Compound
16 | 205 | COc1ccc(Cl)cc1NC(=O)Nc1ccc(N2CCN(C(=O)OC(C)(C)C)CC2)cc1 [Example 1, 4-{4-[3-(5-chloro-2-methoxy-phenyl)-ureido]-phenyl}-piperazine-1-carboxylic acid tert-butyl ester]
17 | 157 | COc1ccc(C)cc1NC(=O)Nc1ccc(N2CCN(C(=O)OC(C)(C)C)CC2)cc1 [Example 2, 4-{4-[3-(2-methoxy-5-methyl-phenyl)-ureido]-phenyl}-piperazine-1-carboxylic acid tert-butyl ester]
18 | 207 | CC(C)(C)OC(=O)N1CCN(c2ccc(NC(=O)Nc3ccccc3[N+](=O)[O-])cc2)CC1 [Example 6, 4-{4-[3-(2-nitro-phenyl)-ureido]-phenyl}-piperazine-1-carboxylic acid tert-butyl ester]
19 | 94 to 96 | CC(C)(C)OC(=O)N1CCN(c2ccc(NC(=O)Nc3cc(Cl)ccc3Oc3ccccc3)cc2)CC1 [Example 8, 4-{4-[3-(5-chloro-2-phenoxy-phenyl)-ureido]-phenyl}-piperazine-1-carboxylic acid tert-butyl ester]
20 | 205 | CC(C)(C)OC(=O)N1CCN(c2ccc(NC(=O)Nc3cc(Cl)ccc3[N+](=O)[O-])cc2)CC1 [Example 10, 4-{4-[3-(5-chloro-2-nitro-phenyl)-ureido]-phenyl}-piperazine-1-carboxylic acid tert-butyl ester]
21 | 187 to 189 | CC(C)(C)OC(=O)N1CCN(c2ccc(NC(=O)Nc3cc(Cl)ccc3N)cc2)CC1 [Example 11, 4-{4-[3-(2-amino-5-chloro-phenyl)-ureido]-phenyl}-piperazine-1-carboxylic acid tert-butyl ester]
22 | 127 | CC(C)(C)OC(=O)N1CCN(c2ccc(NC(=O)Nc3cc(Cl)ccc3NS(C)(=O)=O)cc2)CC1 [Example 12, 4-{4-[3-(5-chloro-2-methanesulfonylamino-phenyl)-ureido]-phenyl}-piperazine-1-carboxylic acid tert-butyl ester]
23 | 184 | COc1ccccc1NC(=O)Nc1ccc(N2CCN(C(=O)OC(C)(C)C)CC2)cc1 [Example 13, 4-{4-[3-(2-methoxy-phenyl)-ureido]-phenyl}-piperazine-1-carboxylic acid tert-butyl ester]
24 | 164 to 166 | CC(C)(C)OC(=O)N1CCN(c2ccc(NC(=O)Nc3ccccc3F)cc2)CC1 [Example 14, 4-{4-[3-(2-fluoro-phenyl)-ureido]-phenyl}-piperazine-1-carboxylic acid tert-butyl ester]
25 | 196 to 197 | CC(C)(C)OC(=O)N1CCN(c2ccc(NC(=O)Nc3ccccc3Cl)cc2)CC1 [Example 15, 4-{4-[3-(2-chloro-phenyl)-ureido]-phenyl}-piperazine-1-carboxylic acid tert-butyl ester]
26 | 188 to 191 | Cc1ccccc1NC(=O)Nc1ccc(N2CCN(C(=O)OC(C)(C)C)CC2)cc1 [Example 16, 4-[4-(3-o-tolyl-ureido)-phenyl]-piperazine-1-carboxylic acid tert-butyl ester]
27 | 162 | CCc1ccccc1NC(=O)Nc1ccc(N2CCN(C(=O)OC(C)(C)C)CC2)cc1 [Example 17, 4-{4-[3-(2-ethyl-phenyl)-ureido]-phenyl}-piperazine-1-carboxylic acid tert-butyl ester]
28 | 219 to 220 | Cc1ccc(C)c(NC(=O)Nc2ccc(N3CCN(C(=O)OC(C)(C)C)CC3)cc2)c1 [Example 19, 4-{4-[3-(2,5-dimethyl-phenyl)-ureido]-phenyl}-piperazine-1-carboxylic acid tert-butyl ester]
29 | 241 | CC(C)(C)OC(=O)N1CCN(c2ccc(NC(=O)Nc3cc(C(F)(F)F)ccc3F)cc2)CC1 [Example 27, 4-{4-[3-(2-fluoro-5-trifluoromethyl-phenyl)-ureido]-phenyl}-piperazine-1-carboxylic acid tert-butyl ester]
30 | 221 to 223 | CC(C)(C)OC(=O)N1CCN(c2ccc(NC(=O)Nc3cc(C(F)(F)F)ccc3Cl)cc2)CC1 [Example 28, 4-{4-[3-(2-chloro-5-trifluoromethyl-phenyl)-ureido]-phenyl}-piperazine-1-carboxylic acid tert-butyl ester]
31 | 222 to 224 | Cc1ccc(Cl)c(NC(=O)Nc2ccc(N3CCN(C(=O)OC(C)(C)C)CC3)cc2)c1 [Example 29, 4-{4-[3-(2-chloro-5-methyl-phenyl)-ureido]-phenyl}-piperazine-1-carboxylic acid tert-butyl ester]
32 | 169 to 172 | Cc1cccc(NC(=O)Nc2ccc(N3CCN(C(=O)OC(C)(C)C)CC3)cc2)c1 [Example 31, 4-[4-(3-m-tolyl-ureido)-phenyl]-piperazine-1-carboxylic acid tert-butyl ester]
33 | 163 | CC(C)(C)OC(=O)N1CCN(c2ccc(NC(=O)Nc3cccc(Cl)c3)cc2)CC1 [Example 32, 4-{4-[3-(3-chloro-phenyl)-ureido]-phenyl}-piperazine-1-carboxylic acid tert-butyl ester]
34 | 206 to 208 | Cc1ccc(F)cc1NC(=O)Nc1ccc(N2CCN(C(=O)OC(C)(C)C)CC2)cc1 [Example 36, 4-{4-[3-(5-fluoro-2-methyl-phenyl)-ureido]-phenyl}-piperazine-1-carboxylic acid tert-butyl ester]
35 | 105 to 107 | CCOc1ccc(C)cc1NC(=O)Nc1ccc(N2CCN(C(=O)OC(C)(C)C)CC2)cc1 [Example 41, 4-{4-[3-(2-ethoxy-5-methyl-phenyl)-ureido]-phenyl}-piperazine-1-carboxylic acid tert-butyl ester]
36 | 168 to 169 | CCOc1ccc(F)cc1NC(=O)Nc1ccc(N2CCN(C(=O)OC(C)(C)C)CC2)cc1 [Example 42, 4-{4-[3-(2-ethoxy-5-fluoro-phenyl)-ureido]-phenyl}-piperazine-1-carboxylic acid tert-butyl ester]
37 | 165 to 167 | CCOc1ccc(Cl)cc1NC(=O)Nc1ccc(N2CCN(C(=O)OC(C)(C)C)CC2)cc1 [Example 43, 4-{4-[3-(5-chloro-2-ethoxy-phenyl)-ureido]-phenyl}-piperazine-1-carboxylic acid tert-butyl ester]

From patent US20070249620A1, “Urea Derivative” (priority 2004, published 2007)
